From paper PMC4138991, “Building a Better Dynasore: The Dyngo Compounds Potently Inhibit Dynamin and Endocytosis” (Traffic (Copenhagen, Denmark), 2013)
Entries after “also recorded” stand apart in the source; their conditions may differ.

Legend:
[1] = system: synaptosomes; assay: Glutamate release from synaptosomes (4-AP stimulated); assay type: cell-based, rat; conditions: 20 μM, 30 min pretreatment, 3 mM 4-AP
Method: Release of glutamate from synaptosomes was performed as described previously 60, with minor changes. The assay was carried out at 37°C in a Perkin Elmer LS50 fluorimeter. Control (1% DMSO) and 4a‐treated samples were incubated in the presence of the compound for 30 min prior to stimulation of glutamate release. For each sample, 1 mg of crude P2 synaptosomes was diluted in 2 mL of HEPES‐buffered Krebs‐like buffer, either containing 1 mM EGTA (zero Ca^2+) or 1 mM EGTA plus 3 mM […] (2 mM free Ca^2+). NAPD^+ (3 mM) and glutamic acid dehydrogenase (50 U) were added and allowed to incubate for 15 min to allow residual glutamate in the sample to be metabolized. 4‐AP (3 mM) was subsequently added to stimulate glutamate release, which was recorded over a 5‐min period. Readings of fluorescence were taken every 2 seconds. All treatment conditions were carried out in zero Ca^2+ and 2 mM Ca^2+ conditions with the zero Ca^2+ measurement subtracted from the 2 mM measurement for each time point. […] Each treatment was carried out in duplicate within a single experiment and each independent experiment was carried out three times on separate days using synaptosomes prepared from fresh rat brain tissue ([…]).

[2] = molecular target: dynamin I binding to SH3 domains of grb2, amphiphysin I, endophilin I (Homo sapiens, UniProt Q05193); assay: Pull-down of dynamin I with SH3 domains; conditions: 10, 40 and 100 µM 4a
Chain of dynamin I binding to SH3 domains of grb2, amphiphysin I, endophilin I (Q05193 whole entry, the tested form may be a part): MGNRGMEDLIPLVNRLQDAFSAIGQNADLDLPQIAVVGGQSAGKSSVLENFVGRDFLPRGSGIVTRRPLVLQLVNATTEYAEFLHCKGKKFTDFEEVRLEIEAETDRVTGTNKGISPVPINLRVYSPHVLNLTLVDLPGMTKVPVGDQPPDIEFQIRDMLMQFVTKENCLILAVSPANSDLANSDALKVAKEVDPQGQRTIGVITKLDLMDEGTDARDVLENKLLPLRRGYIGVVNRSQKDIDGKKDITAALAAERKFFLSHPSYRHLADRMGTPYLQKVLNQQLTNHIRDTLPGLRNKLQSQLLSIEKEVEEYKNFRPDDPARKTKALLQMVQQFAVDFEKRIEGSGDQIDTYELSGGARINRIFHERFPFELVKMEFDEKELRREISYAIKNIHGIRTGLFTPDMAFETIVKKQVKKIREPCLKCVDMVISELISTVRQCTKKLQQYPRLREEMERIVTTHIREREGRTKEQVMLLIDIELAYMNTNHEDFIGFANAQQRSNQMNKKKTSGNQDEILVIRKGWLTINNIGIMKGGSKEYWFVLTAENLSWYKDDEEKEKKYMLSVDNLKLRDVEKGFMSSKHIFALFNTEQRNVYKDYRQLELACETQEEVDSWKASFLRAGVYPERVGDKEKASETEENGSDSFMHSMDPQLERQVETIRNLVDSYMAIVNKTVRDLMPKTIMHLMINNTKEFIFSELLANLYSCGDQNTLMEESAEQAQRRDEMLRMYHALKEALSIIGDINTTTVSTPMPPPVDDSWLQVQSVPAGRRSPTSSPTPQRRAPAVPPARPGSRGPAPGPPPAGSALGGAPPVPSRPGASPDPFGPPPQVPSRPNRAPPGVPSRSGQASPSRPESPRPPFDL
Method: Recombinant human dynamin I was expressed in insect cells (SF21). Cells were lysed and sonicated in 20 mM HEPES buffer with 250 mM NaCl. The lysates were diluted in 20 mM HEPES buffer alone to obtain a final 50 mM NaCl concentration. This diluted lysate was used for pull-downs with 6 µg of GST-amphiphysin1 SH3, GST-endophilin SH3 or GST-grb2 SH3 (all recombinantly expressed in bacteria) immobilised on glutathione sepharose beads. Incubations were done in the presence or absence of 10, 40 and 100 µM 4a for 1 hr at 10°C. The GSH beads were then washed three times with ice cold PBS and the bound proteins were separated on 12% SDS-PAGE gels and visualised using Coomassie Blue.

[3] = system: cultured CGNs; assay: SV turnover by FM1-43 loading/unloading in cultured cerebellar granule neurons; assay type: cell-based, rat; conditions: 30 μM, 15 min preincubation
Method: (§1) Granule neuron cultures were prepared from the cerebella of 7‐day‐old rat pups as previously described 57. In all experiments, neurons were used between 8 and 10 days in vitro.
Neuronal cultures were removed from culture medium and left for 10 min in incubation medium [170 mM NaCl, 3.5 mM KCl, 0.4 mM KH2PO4, 20 mM TES (N‐tris[hydroxy‐methyl]‐methyl‐2‐aminoethane‐sulfonic acid), 5 mM NaHCO3, 5 mM glucose, 1.2 mM Na2SO4, 1.2 mM MgCl2 and 1.3 mM CaCl2, pH 7.4]. Cultures were then mounted in a Warner imaging chamber (RC‐21BRFS). Invaginating membrane was loaded with FM1‐43 (10 μM) by evoking SV turnover with a brief train of action potentials (80 Hz for 10 seconds, 100 mA and 1‐millisecond pulse width, delivered using platinum wires embedded in the imaging chamber). Dye kept present for 1 min after stimulation to ensure all retrieving membrane was labeled (S1 loading). After a 10‐min rest period, accumulated dye was unloaded from nerve terminals using two consecutive maximal stimuli with incubation media supplemented with 50 mM KCl (50 mM NaCl removed to maintain osmolarity). The fluorescence decrease due to dye loss provides an estimate of the total number of synaptic vesicles turned over during stimulation (S1). After a 20‐min rest period the S1 protocol was repeated (S2 loading and unloading). […]

[4] = system: cultured CGNs; assay: HRP labeling of endocytosis pathways (electron microscopy) in CGNs; assay type: cell-based, rat; conditions: 30 μM, 15 min, 80 Hz 10 s
Method: as §1
Granule neurons were processed for electron microscopy as previously described 40. Briefly, cells were transferred to incubation medium for 10 min and subsequently incubated with or without 30 μM 4a for 15 min. Cultures were next stimulated with 800 action potentials (80 Hz) in incubation medium supplemented with HRP (10 mg/mL) in the presence or absence of 4a. Cells were fixed in a 2% solution of glutaraldehyde in phosphate‐buffered saline for 30 min at 37°C directly after stimulation. After washing with 100 mM Tris (pH 7.4) cells were exposed to 0.1% diaminobenzidine and 0.2% H2O2 in 100 mM Tris. On development of color, cells were washed with 100 mM Tris and subsequently stained with 1% osmium tetroxide for 30 min. After washing, cells were post‐stained with 2% uranyl acetate for 15 min, then dehydrated using ethanol series and polypropylene oxide and embedded using Durcupan. Samples were sectioned, mounted on grids and viewed using a FEI Tecnai 12 transmission electron microscope. Intracellular structures that were less than 100 nm in diameter were arbitrarily designated to be synaptic vesicles, whereas larger structures were designated to be endosomes.

[5] = system: grb2-stimulated dynamin; design: method as in PMID 16740485; conditions: no detergent, read-out: previously estimated IC50 for dynasore; cited from earlier work

O=C(N/N=C/c1cc(O)c(O)cc1O)c1cc2ccccc2cc1O [4a, (E)-3-Hydroxy-N'-(2,4,5-trihydroxybenzylidene) -2-naphthohydrazide]
Ca2+-dependent glutamate release [1]: decrease in the release of glutamate only after 45 seconds
effect on dynamin I binding to SH3 domains [2]: did not disrupt the binding; also recorded: no effect
FM1-43 unloading (SV exocytosis) [3]: did not have a significant acute effect
number of HRP-labeled endosomes (ADBE) [4]: caused a decrease in the number
number of HRP-labeled synaptic vesicles (neuronal CME) [4]: significant reduction in the number of labeled synaptic vesicles

O=C(N/N=C/c1ccc(O)c(O)c1)c1cc2ccccc2cc1O [Dynasore, (E)-N'-(3,4-Dihydroxybenzylidene)-3-hydroxy-2-naphthohydrazide]
IC50 [5]: ~15 µM
